Assay: mn = molality of the nth substance listed, in mol/kg
Details: Liquid, Constant-volume piezometry

[Br-].[NH4+] [ammonium bromide] + N
mass density [kg/m3]
Details	303.15 K	313.15 K	323.15 K	333.15 K	343.15 K	353.15 K	363.15 K	373.15 K
10000 kPa, m1 = 1.143	675.9	661.3	646.8	630.2	612.8	594.5	576	–
10000 kPa, m1 = 2.601	750.8	737.8	724.3	709.5	693.7	676.6	659.3	–
10000 kPa, m1 = 4.381	829	817.3	805	791.1	778.3	765.5	748.7	737.7
10000 kPa, m1 = 7.359	939.1	926.8	914.3	903.1	891.2	878.6	866.4	854.6
10000 kPa, m1 = 10.35	1028.9	1017	1005.2	994.4	983.9	973	961.1	950.1
10000 kPa, m1 = 15.17	1126.2	1116.9	1105.9	1096	1086.6	–	1067.8	1057.7
15000 kPa, m1 = 1.143	679.5	665.1	651.2	635.4	618.5	601.3	583.7	569.5
15000 kPa, m1 = 2.601	754.5	741.4	727.7	714	698.1	681.9	665.4	652.4
15000 kPa, m1 = 4.381	832.7	820.9	808.9	795.1	782.6	769.6	754.3	742.9
15000 kPa, m1 = 7.359	942.7	929.8	917.4	906.7	894.7	882.5	870.2	858.5
15000 kPa, m1 = 10.35	1032.2	1020.3	1008.3	997.8	987.4	976.5	965.6	954.3
15000 kPa, m1 = 15.17	1128.1	1118.8	1107.8	1098.2	1089.1	–	1070.1	1060.3
20000 kPa, m1 = 1.143	682.7	668.9	655.4	640.3	624.1	607.9	590.9	577.4
20000 kPa, m1 = 2.601	758	745	731.4	718.3	702.6	687.1	671.2	658.4
20000 kPa, m1 = 4.381	836.1	824.2	812.6	799.1	786.7	773.8	759.5	748
20000 kPa, m1 = 7.359	945.8	932.8	920.3	909.8	898.2	886.2	873.8	862.2
20000 kPa, m1 = 10.35	1034.9	1023.2	1011.2	1001.2	991.3	979.8	969	958
20000 kPa, m1 = 15.17	1130.1	1120.4	1109.7	1100.3	1091.2	–	1072.4	1062.6
25000 kPa, m1 = 1.143	686.3	672.6	659.7	645.1	629.9	614.6	598.2	585.2
25000 kPa, m1 = 2.601	761.3	748.6	734.9	722.5	707.2	692	677.1	664.3
25000 kPa, m1 = 4.381	839.1	827.6	816.1	803	790.7	778.1	764.4	752.9
25000 kPa, m1 = 7.359	948.9	935.5	923	912.7	901.6	889.7	877.4	865.9
25000 kPa, m1 = 10.35	1037.4	1025.9	1014.1	1004	993.6	983	972.5	961.3
25000 kPa, m1 = 15.17	1132	1122	1111.5	1102.2	1093.3	–	1074.8	1065.1
30000 kPa, m1 = 1.143	689.5	676.3	663.8	649.5	635.4	621.2	605.2	592.7
30000 kPa, m1 = 2.601	764.4	752.1	738.7	726.3	711.7	697	682.6	670
30000 kPa, m1 = 4.381	842.1	830.7	819.4	807.1	794.2	782.2	769	757.6
30000 kPa, m1 = 7.359	951.2	938	926	915.6	904.9	893.2	881.3	870
30000 kPa, m1 = 10.35	1039.8	1028.6	1016.7	1006.9	995.8	986.6	975.7	964.7
30000 kPa, m1 = 15.17	1134	1123.6	1113.4	1104	1095.4	–	1076.8	1067.1

— the NIST ThermoML archive (doi:10.1021/je900359y)
